The results in this text go back to patent US20050246797A1, “Gene participating in the synthesis of brassinosteroid” (priority 2002, published 2005).

Like-named read-outs stand apart in the source and are kept apart here.

Data set [1] can be described thus: Concentrations of brassinosteroids in Arabidopsis strains by HPLC and GC-MS. The method, then:
The concentrations of brassinosteroids were determined in wild strains (Ws-2), the strain of reference example 1 (rot3-1 and rot3-5, suppressed function of ROT3) and the strain of reference example 3 (rot3/CYP90D1, suppressed function of ROT3 and CYP90D1) of Arabidoposis. The concentration was determined by harvesting the ground part of the plants at the time of rosette formation by reaping, by freezing and drying, and by detecting using HPLC and GC-MS.

The subject of data set [2] is strains of suppressed function of both ROT3 and CYP90D1. As to the kind of experiment: Treatment of plants/leaves of the ROT3- and CYP90D1-suppressed strain with brassinosteroid intermediates or brassinolide (leaf morphology, FIG. 3). To be noted: aqueous solution 0.1 μM, submersion with gentle shaking. The format is in vivo, Arabidopsis. The method, then:
The strain with suppressed function of both ROT3 and CYP90D1 prepared in reference example 2 was cultured from seeds in sterilized conditions. The seeds of the above-described strain were seeded on the MS medium (solidified by 0.2% Gelrite) supplemented with 2% (w/v) sucrose and were conventionally cultured at 23° C. under continuous illumination after seeding under sterilized conditions.
The above-described plants (strains of suppressed function of both ROT3 and CYP90D1) were cultured in the above-described aqueous solution at the level of submersion under the solution with gently shaking. In the case of the treatment of leaves with the above-described intermediates or brassionolide, leafstalks were cut out by a surgical knife after taking out the plants under sterilized conditions and were treated in the same way. […] Namely, ROT3 and CYP90D1 are cooperatively involved in the synthesis of brassinolide, the final product of the biosynthetic pathway of brassinosteriods.

[3] abbreviates: rot3/CYP90D1 (suppressed function of ROT3 and CYP90D1), ground part of plants at rosette formation.

Turning to `CC(C)[C@H](C)[C@@H](O)[C@H](O)[C@@H](C)[C@H]1CC[C@H]2[C@@H]3CC[C@H]4C[C@H](O)CC[C@]4(C)[C@H]3CC[C@]12C` [3-Deoxotyphasterol], the “concentration of brassinosteroid, rot3/CYP90D1” value (“concentration … rot3/CYP90D1” for short) in data set [1] (setting [3]) was found to be 0.38 ng/g.

On to `CC(C)[C@H](C)[C@@H](O)[C@H](O)[C@@H](C)[C@H]1CC[C@H]2[C@@H]3CC[C@H]4C[C@H](O)[C@H](O)C[C@]4(C)[C@H]3CC[C@]12C` [6-Deoxocastasterone], for which the “concentration … rot3/CYP90D1” value in data set [1] stood at 0.034 ng/g.

`CC(C)[C@H](C)[C@@H](O)[C@H](O)[C@@H](C)[C@H]1CC[C@H]2[C@@H]3CC[C@H]4C[C@@H](O)CC[C@]4(C)[C@H]3CC[C@]12C` [6-Deoxoteasterone]: the “concentration … rot3/CYP90D1” value in data set [1] (setting [3]) was 0.26 ng/g.

For the compound `CC(C)[C@H](C)[C@@H](O)[C@H](O)[C@@H](C)C1CCC2C3OC(=O)[C@H]4C[C@H](O)[C@H](O)C[C@]4(C)C3CC[C@@]21C` (stereo partly shown) [Brassinolide], the “effect on leaf size/morphology of plants without the function of ROT3 and CYP90D1” value in data set [2] is reported as “induced large size of leaves”. In addition, in data set [1] (setting [3]), the “concentration … rot3/CYP90D1” value was “— (— in the table shows that the value is less than the limit of detection (0.001 ng/g))”. Moreover, the “amount in the strain with suppressed function of both ROT3 and CYP90D1” value in data set [1] (rot3/CYP90D1, in words) is “extremely decreased”.

In the case of `CC(C)[C@H](C)[C@@H](O)[C@H](O)[C@@H](C)[C@H]1CC[C@H]2[C@@H]3CC(=O)[C@H]4C[C@H](O)[C@H](O)C[C@]4(C)[C@H]3CC[C@]12C` [Castasterone], in data set [1] (setting [3]), the “concentration … rot3/CYP90D1” value turned out to be 0.020 ng/g.
